Experimental data as given in publication PMC4207403, “Docking Studies and Biological Activity of Fosinopril Analogs” (International Journal of Medicinal Chemistry, 2014).

Assays:
[1] = target: T1, angiotensin-I converting enzyme (ACE) (Rattus norvegicus, UniProt P47820); assay: In vitro angiotensin-I converting enzyme inhibitory activity, spectrophotometric assay with rat lung extract; type: biochemical; conditions: for inhibition at 0.0002 µM: 0.2 nM; for inhibition at 0.0004 µM: 0.4 nM; for inhibition at 0.0006 µM: 0.6 nM; for inhibition at 0.0008 µM: 0.8 nM; for inhibition at 0.001 µM: 1 nM; for IC50: ACE inhibition, rat lung extract
T1 construct: The reaction was started by the addition of 40 μL rat lung extract; from tissue; host or cells: rat lung extract
T1 sequence (P47820 36-1313): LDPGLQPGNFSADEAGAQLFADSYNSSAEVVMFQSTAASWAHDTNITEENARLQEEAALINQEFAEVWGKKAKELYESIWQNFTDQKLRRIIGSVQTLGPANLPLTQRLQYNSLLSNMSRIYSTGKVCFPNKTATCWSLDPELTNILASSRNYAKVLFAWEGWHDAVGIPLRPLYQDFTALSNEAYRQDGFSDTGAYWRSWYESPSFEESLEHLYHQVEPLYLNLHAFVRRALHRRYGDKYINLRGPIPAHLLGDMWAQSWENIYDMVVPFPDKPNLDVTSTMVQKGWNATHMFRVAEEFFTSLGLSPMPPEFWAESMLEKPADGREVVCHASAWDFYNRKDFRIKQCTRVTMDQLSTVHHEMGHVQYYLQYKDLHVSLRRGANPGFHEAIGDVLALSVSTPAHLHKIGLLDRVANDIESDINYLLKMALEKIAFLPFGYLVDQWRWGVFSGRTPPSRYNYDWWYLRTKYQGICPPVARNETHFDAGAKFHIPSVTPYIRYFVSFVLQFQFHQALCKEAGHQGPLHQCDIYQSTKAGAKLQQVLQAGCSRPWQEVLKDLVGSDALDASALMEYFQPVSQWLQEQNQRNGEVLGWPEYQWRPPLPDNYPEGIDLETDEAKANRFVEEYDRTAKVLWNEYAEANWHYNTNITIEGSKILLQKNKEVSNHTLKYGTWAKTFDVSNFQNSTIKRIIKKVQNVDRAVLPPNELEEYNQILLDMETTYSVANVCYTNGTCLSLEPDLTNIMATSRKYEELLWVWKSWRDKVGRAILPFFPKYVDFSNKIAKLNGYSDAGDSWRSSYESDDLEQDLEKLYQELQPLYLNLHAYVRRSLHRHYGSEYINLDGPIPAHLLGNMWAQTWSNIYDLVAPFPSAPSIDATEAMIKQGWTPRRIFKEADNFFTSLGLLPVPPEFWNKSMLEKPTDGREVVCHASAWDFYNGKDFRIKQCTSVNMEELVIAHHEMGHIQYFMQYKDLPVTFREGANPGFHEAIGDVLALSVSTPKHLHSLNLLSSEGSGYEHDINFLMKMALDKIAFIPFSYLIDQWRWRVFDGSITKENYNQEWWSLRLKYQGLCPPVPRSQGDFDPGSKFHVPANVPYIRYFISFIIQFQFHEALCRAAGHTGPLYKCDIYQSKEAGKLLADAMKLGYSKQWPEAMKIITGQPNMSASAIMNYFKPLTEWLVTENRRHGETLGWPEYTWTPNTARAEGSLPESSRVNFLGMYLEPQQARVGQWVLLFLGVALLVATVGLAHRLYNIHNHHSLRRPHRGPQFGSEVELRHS
Protocol: This method is based on the cleavage of the substrate hippuryl-glycyl-glycine by ACE and subsequent reaction with trinitrobenzenesulfonic acid to form 2,4,6-trinitrophenyl-glycyl-glycine. The method relies on spectrophotometric determination of hippuric acid. It involves a colorimetric reaction of hippuric acid with benzene sulfonyl chloride.
The assay system consisted of 200 μL of substrate solution, water, and drug solution in a volume of 0.25 mL. The reaction was started by the addition of 40 μL rat lung extract. After 30 minutes of incubation at 37°C, the reaction was stopped by adding 2 mL of stop solution (1.195 g HEPES and 0.0465 g of EDTA were dissolved in 40 mL distilled water. The pH was adjusted to 9.0 with 1 mol/lit sodium hydroxide and diluted to 50 mL with distilled water). Then 0.5 mL distilled water and 1.0 mL colour reagent were added, mixed vigorously, left for 5 min, and centrifuged at 3000–4000 rpm for 10 minutes at room temperature to remove any precipitate. The corresponding enzyme inhibitors blanks were assayed in the same manner except for adding the stop solution before the lung extract. The absorbance of the yellow product of the reaction between liberated hippurate and cyanuric chloride was measured spectrophotometrically at 405 nm against distilled water as blank.Controls without drug were run simultaneously in all cases. “One inhibitory unit is the amount of inhibitor that suppressed the ACE activity by one unit.”

[2] = background statement; cited from earlier work
[3] = system: ACE; conditions: background statement; cited from earlier work
[4] = read-out: Percent inhibition of ACE

SMILES | inhibition at 10 pM ([1]; 0.01 nM, read-out: Percent inhibition of ACE) [%] | inhibition at 20 pM ([1]; 0.02 nM, read-out: Percent inhibition of ACE) [%] | inhibition at 0.0002 µM [1, 4] [%] | inhibition at 0.0004 µM [1, 4] [%] | inhibition at 0.0006 µM [1, 4] [%] | inhibition at 0.0008 µM [1, 4] [%] | inhibition at 0.001 µM [1, 4] [%] | IC50 [1] [nM] | ACE inhibition activity, in words ([1]; compared with other analogs and Fosinopril) | inhibition at 0.0001 µM ([1]; 0.1 nM, read-out: Percent inhibition of ACE) [%] | Bioavailability [2] | Potency relative to other ACE inhibitors [3]
O=C(O)C1Cc2ccccc2CN1C(=O)CP(=O)(O)CCCCc1ccccc1 (stereo not shown) [Analog A2] | 44.7 ± 3.85 | 53.2 ± 5.73 | 75.1 ± 4.66 | 77.8 ± 3.21 | 81.7 ± 6.09 | 84 ± 5.11 | 84.5 ± 4.52 | 0.017 ± 0.009 | highest ACE inhibition activity | – | – | –
CCC(=O)O[C@@H](O[P@](=O)(CCCCc1ccccc1)CC(=O)N1C[C@H](C2CCCCC2)C[C@H]1C(=O)O)C(C)C [Fosinopril] | – | – | 63 ± 6.01 | 68.7 ± 3.99 | 73 ± 4.76 | 88.2 ± 5.2 | 89.1 ± 3.82 | 0.143 ± 0.012 | – | 44.1 ± 4.35 | – | –
O=C(O)[C@@H]1C[C@@H](C2CCCCC2)CN1C(=O)CP(=O)(O)CCCCc1ccccc1 [Fosinoprilat] | – | – | – | – | – | – | – | – | – | – | poor bioavailability | more potent than captopril but less potent than enalaprilat
C[C@H](N[C@@H](CCc1ccccc1)C(=O)O)C(=O)N1CCC[C@H]1C(=O)O [enalaprilat] | – | – | – | – | – | – | – | – | – | – | poor bioavailability | –
